These results are taken from patent EP3281644A1, “STABLE FLUORESCENT NANOVESICLES, METHOD FOR OBTAINING THEM AND USES THEREOF” (Consejo Superior De Investigaciones Científicas, priority 2016, dated 2018).

A value given as a limit tells only on which side of the number the result lay.

The conditions of data set [1]: reference standard; in methanol; cited from earlier work.
Data set [2] can be described thus: Photochemical decomposition quantum yield under continuous laser irradiation. It counts as physicochemical. As to conditions: free dye in EtOH; diode laser 660 nm. The method, then:
Photostabilities of DiD in EtOH and of DiD-nanovesicles were analyzed by monitoring the evolution over time of absorbance of the samples under continuous laser irradiation. The data are shown in Table below and are also represented in Figure 8. Additional column in Table 1 for rows of DiD
The quantum yields of photoreaction were calculated following the method proposed by Belfield et al. "Photophysical and photochemical properties of 5,7-di-methoxycoumarin under one- and two-photon excitation". J. Phys. Org. Chem. 16, 69-78 (2003).
Sample photostability under continuous-wave excitation was determined by measuring the photochemical decomposition quantum yield. […]
Quantum yields of photochemical decomposition were measured in ethanol (for DID) and water (FI, NDB and all nanovesicle samples) using absorption and fluorescence methods, where the number of bleached molecules is determined by a kinetic decrease in absorbance or fluorescence intensity under the assumption that fluorescence and absorbance of the photoproducts are negligible in the spectral region of dye fluorescence and main absorption band. Fluorescence method was used to estimate the photostability of dilute samples (with maximum absorbance < 0.1), while photochemical decomposition quantum yields of concentrated solutions (with maximum absorbance ≈ 1) were determined by absorption method. […]

In the case of cresyl violet, the “QY, Φ” value in data set [1] was 56%.
In the case of `CCCCCCCCCCCCCCCCCCN1C(=CC=CC=CC2=[N+](CCCCCCCCCCCCCCCCCC)c3ccccc3C2(C)C)C(C)(C)c2ccccc21.[O-][Cl+3]([O-])([O-])[O-]` [DiD EtOH, 1,1'-dioctadecyl-3,3,3',3'-tetramethyl-indodicarbocyanine perchlorate], in data set [2], the “Photodecomposition QY*10^-5” value is <0,008 *10^-5.
